Tests used:
[1] = system: lung explants from a patient with IPF; test: IPF patient lung explant culture, gene expression and secreted proteins; type: cell-based, human; settings: 10 days; nintedanib 0.1 μM, Alk5i 10 μM, Ereg Ab 2.5 μg/ml
Protocol: FIGS. 13A-13I show epiregulin inhibition reduces mouse and human lung fibrosis. (FIGS. 13A-13E) As diagramed in (FIG. 13A), 10 days after intratracheal bleomycin mice began treatment with epiregulin antibody for two weeks prior to euthanasia. Lungs were analyzed for histology (FIG. 13B), modified Ashcroft score (FIG. 13C), hydroxyproline (FIG. 13D) and epiregulin gene expression (FIG. 13E), n=6 (PBS), 11 (BLM), and 7 (Ereg Ab). Histology images in (FIG. 13B) are 10× magnification with 200 μm scale bars and IHC images are 40× magnification with 40 μm scale bars. […] The same tissue was cut into cubes and cultured for 10 days in the presence of the multikinase inhibitor nintedanib 0.1 μM (Nin), the Alk5 inhibitor A-1544033 (IN-1130) 10 μM (Alk5i), epiregulin antibody 2.5 μg/ml (Ereg Ab) or non-treated vehicle control (NT). (FIGS. 13G-13I) Relative expression of indicated genes, n=4 per group. (FIG. 13I) Protein secretion of indicated genes measured by ELISA, n=8 per group. ELISA samples with poor signal and qPCR outliers identified by Grubbs's test with alpha-0.05 were excluded. Data are means±SD (ns, not significant. * P<0.05, ** P<0.01, **** P<0.0001) analyzed with one-way analysis of variance (ANOVA) with Tukey multiple-comparisons test (FIGS. 13C-13E) and Dunnett's multiple-comparisons test (FIGS. 13G-13I).
Pathologic assessment confirmed the diagnosis of early IPF, as evidenced by the presence of fibroblastic foci and hyperplasia of alveolar type II epithelial cells as shown in FIG. 13F. Lung tissue was plated in 24 well plates and cultured for 10 days with media changes every two days. The impact of epiregulin antibody compared to the multikinase inhibitor nintedanib and a transforming growth factor beta type I receptor TGF-βRI/Alk5 small molecule inhibitor was assessed by measuring disease relevant endpoints in gene expression and protein production. At the gene level, reduction in epiregulin expression was observed which was similar to that seen in mouse lung by both epiregulin and TGF-βRI inhibition (FIG. 13G, left panel). […] ECM-remodeling and inflammation. […]
For lung explants, human IPF lung (person) was obtained from the National Disease Research Interchange (NDRI), kept cold, and received <24 hours after cross-clamp. […] After 10 days, culture supernatants were collected, pre-cleared at 4000× g (4° C. 10 mins), transferred to a clean 96 well polypropylene plate and stored at −80° C., until protein endpoints measured. Measured secreted proteins include: human MCP-1 V-Plex (MesoScale Discovery, K151NND-1), human TIMP-1 (MesoScale Discovery, K151JFC-1) and human pro-collagen 1α1 DuoSet Elisa (R&D systems, DY6220-05). All proteins were assayed and analyzed in accordance with their respective assay product datasheets. […]

[2] = data from European Medicines Agency; tocilizumab from reference 80; cited from earlier work
[3] = data from European Medicines Agency; read-out: KD (×10^−12); cited from earlier work

| Molecule | COL1A1 gene expression, IPF lung explant [1] | epiregulin gene expression, IPF lung explant [1] | pro-COL1A1 protein level, IPF lung explant [1] | IC50 [2] [pM] | Kd [3] [pM] |
| --- | --- | --- | --- | --- | --- |
| Cc1cccc(-c2[nH]c(Cc3cccc(C(N)=O)c3)nc2-c2ccc3nccnc3c2)n1 [TGF-βRI/Alk5 small molecule inhibitor] | significantly reduced expression | reduction | significant reduction |  |  |
| COC(=O)c1ccc2c(c1)NC(=O)/C2=C(\Nc1ccc(N(C)C(=O)CN2CCN(C)CC2)cc1)c1ccccc1 [nintedanib] |  |  | significant reduction |  |  |
| Adalimumab |  |  |  | 100 to 1000 | 58 to 87 |
| Rizankizumab: FDA-approved monoclonal antibody medication |  |  |  | 24 | 29 |
| Tocilizumab: FDA-approved monoclonal antibody medication |  |  |  | 90 | 2500 |

— patent US20250154238A1, “METHODS AND COMPOSITIONS FOR TREATING AND PREVENTING FIBROSIS” (YALE UNIVERSITY, priority 2022, published 2025)
